One series deals with T1, PsGK (Pseudoalteromonas sp. AS-131, UniProt H7CHS4, C325S).
T1 construct: gene glk; full length, cloned in pET-16b, expressed in E. coli BL21 (DE3), purified by ammonium sulfate and anion exchange (no tag mentioned); about 35 kDa subunit, 79 kDa homodimer by gel filtration
Put plainly: G6PD-coupled NADPH assay at […] nm, Lineweaver-Burk. Type of series: biochemical. Particulars: 1, 25 and 40 °C.

The target of the next series is T2, EcGK (Escherichia coli, UniProt P0A6V8).
T2 construct: gene glk; full length, cloned in pET-16b, expressed in E. coli BL21 (DE3), purified by ammonium sulfate and anion exchange (no tag mentioned); about 35 kDa subunit, 59 kDa homodimer by gel filtration
T2 sequence (P0A6V8 2-321): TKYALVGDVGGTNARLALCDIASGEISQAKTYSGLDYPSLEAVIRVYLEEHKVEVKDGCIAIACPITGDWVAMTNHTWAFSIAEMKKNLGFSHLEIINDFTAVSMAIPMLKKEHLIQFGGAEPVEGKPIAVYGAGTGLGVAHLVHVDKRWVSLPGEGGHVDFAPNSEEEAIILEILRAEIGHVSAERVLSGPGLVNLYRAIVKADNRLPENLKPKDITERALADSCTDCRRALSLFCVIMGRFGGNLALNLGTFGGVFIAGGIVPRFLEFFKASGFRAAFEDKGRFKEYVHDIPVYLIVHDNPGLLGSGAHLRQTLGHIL
In words: G6PD-coupled NADPH assay at […] nm, Lineweaver-Burk. The settings on record: 25 °C, pH 7.6, 20 mM Tris-HCl, 10 mM MgCl2, co-substrate glucose, 1 mM DTT; also measured at 1 and 40 °C. Type of series: biochemical.

Series [1] concerns the molecule itself. In words: SEC; gel filtration on HiLoad 16/60 Superdex 200 prep grade; molecular weights estimated and compared with about 35 kDa by SDS/PAGE; monomers to dimer.
Substrate in the series “purified protein”: Nc1ncnc2c1ncn2[C@@H]1O[C@H](COP(=O)(O)OP(=O)(O)OP(=O)(O)O)[C@@H](O)[C@H]1O
In words: purified protein. Particulars: 25 °C, pH 7.6, 20 mM Tris-HCl, 10 mM MgCl2, co-substrate glucose, 1 mM DTT, also measured at 1 and 40 °C. The series is classed as biochemical, Pseudoalteromonas sp. AS-131.

T1 sequence (H7CHS4 entry or part of it C325S): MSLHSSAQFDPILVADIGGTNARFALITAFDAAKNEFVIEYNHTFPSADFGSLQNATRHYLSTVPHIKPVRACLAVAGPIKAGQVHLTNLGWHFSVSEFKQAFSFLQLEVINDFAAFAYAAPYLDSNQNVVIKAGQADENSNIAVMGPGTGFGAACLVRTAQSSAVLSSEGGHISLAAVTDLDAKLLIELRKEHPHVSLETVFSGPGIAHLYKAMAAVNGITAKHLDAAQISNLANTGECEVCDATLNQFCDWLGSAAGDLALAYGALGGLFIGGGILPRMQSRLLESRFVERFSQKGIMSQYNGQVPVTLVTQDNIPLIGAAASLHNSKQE

On to `Nc1ncnc2c1ncn2[C@@H]1O[C@H](COP(=O)(O)OP(=O)(O)OP(=O)(O)O)[C@@H](O)[C@H]1O` [ATP], for which the K m entry was “the catalytic efficiency (k cat/K m) of C325S exceeded that of WT” at PsGK (pH 7.6, 10 mM MgCl2, co-substrate glucose) and 1110 ± 80 µM at EcGK.
As for `OC[C@H]1OC(O)[C@H](O)[C@@H](O)[C@@H]1O` (stereo partly drawn) [glucose], the K m entry at PsGK (pH 7.6, 10 mM MgCl2, co-substrate ATP) is listed as “the catalytic efficiency (k cat/K m) of C325S exceeded that of WT”.

B1: glucokinase from Escherichia coli wild-type (enzyme, Escherichia coli K-12)
chain: TKYALVGDVGGTNARLALCDIASGEISQAKTYSGLDYPSLEAVIRVYLEEHKVEVKDGCIAIACPITGDWVAMTNHTWAFSIAEMKKNLGFSHLEIINDFTAVSMAIPMLKKEHLIQFGGAEPVEGKPIAVYGAGTGLGVAHLVHVDKRWVSLPGEGGHVDFAPNSEEEAIILEILRAEIGHVSAERVLSGPGLVNLYRAIVKADNRLPENLKPKDITERALADSCTDCRRALSLFCVIMGRFGGNLALNLGTFGGVFIAGGIVPRFLEFFKASGFRAAFEDKGRFKEYVHDIPVYLIVHDNPGLLGSGAHLRQTLGHIL
notes: glucokinase (EcGK) of Escherichia coli K-12, encoded by glk, UniProt P0A6V8; the gene was amplified from genomic DNA and cloned into pET-16b; also called EcGK; EcGK WT; source: E. coli BL21 (DE3), purified (ammonium sulfate fractionation, anion exchange HiTrap Q HP)
As to B1, the “stoichiometry N” value in series [1] was 2.

B2: glucokinase from Pseudoalteromonas sp. AS-131 wild-type (enzyme, UniProt H7CHS4 1-332, looked up)
chain: MSLHSSAQFDPILVADIGGTNARFALITAFDAAKNEFVIEYNHTFPSADFGSLQNATRHYLSTVPHIKPVRACLAVAGPIKAGQVHLTNLGWHFSVSEFKQAFSFLQLEVINDFAAFAYAAPYLDSNQNVVIKAGQADENSNIAVMGPGTGFGAACLVRTAQSSAVLSSEGGHISLAAVTDLDAKLLIELRKEHPHVSLETVFSGPGIAHLYKAMAAVNGITAKHLDAAQISNLANTGECEVCDATLNQFCDWLGSAAGDLALAYGALGGLFIGGGILPRMQSRLLESRFVERFSQKGIMSQYNGQVPVTLVTQDNIPLIGAAACLHNSKQE
notes: glucokinase (PsGK) of Pseudoalteromonas sp; AS-131, UniProt H7CHS4; amplified with primers that carry the start and the stop codon and cloned into pET-16b; also called PsGK; PsGK WT; source: E. coli BL21 (DE3), purified (ammonium sulfate fractionation, anion exchange HiTrap Q HP)
With B2, the Km in “purified protein” is 1550 ± 170 µM. Moreover, in series [1], the “stoichiometry N” value was 2.

These data come from publication PMC13147314 (The Febs Journal, 2025).
